Data taken from PubChem BioAssay AID256 (DTP/NCI, 2004).
Toxic doses and inconclusive results are not listed.

Tested on: CD2F1 mice, L1210 leukemia ip, survival T/C
Test: NCI In Vivo Anticancer Drug Screen. Data for tumor model L1210 Leukemia (intraperitoneal) in CD2F1 (CDF1) mice
Details: higher = longer survival
How it was run: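 Each value reflects a quotient of treated over vehicle control outcomes in mice with a transplanted tumor.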

[1] = endpoint: mean survival time, dose: 100.0 mg/kg/injection, schedule: Q01DX009 (ip), vehicle: saline with Tween-80
[2] = endpoint: mean survival time, dose: 200.0 mg/kg/injection, schedule: Q01DX009 (ip), vehicle: saline with Tween-80
[3] = endpoint: mean survival time, dose: 400.0 mg/kg/injection, schedule: Q01DX009 (ip), vehicle: saline with Tween-80

CC1CCC2CON(C#N)C2C1 (stereo unspecified)
T/C (endpoint: mean survival time, dose: 100.0 mg/kg/injection, schedule: Q04DX003 (ip), vehicle: Klucel (hydroxypropylcellulose) (HPC)): 109 % of control
T/C (endpoint: mean survival time, dose: 200.0 mg/kg/injection, schedule: Q04DX003 (ip), vehicle: Klucel (hydroxypropylcellulose) (HPC)): 101 % of control
T/C (endpoint: mean survival time, dose: 400.0 mg/kg/injection, schedule: Q04DX003 (ip), vehicle: Klucel (hydroxypropylcellulose) (HPC)): 101 % of control

CC(=NCc1ccccc1)C(C)(O)c1ccccc1 (stereo unspecified)
T/C (endpoint: mean survival time, dose: 100.0 mg/kg/injection, schedule: Q01DX001 (ip), vehicle: saline): 107 % of control
T/C (endpoint: mean survival time, dose: 200.0 mg/kg/injection, schedule: Q01DX001 (ip), vehicle: saline): 101 % of control
T/C (endpoint: mean survival time, dose: 400.0 mg/kg/injection, schedule: Q01DX001 (ip), vehicle: saline): 96 % of control

CCOC(=O)CC(=O)c1ccccc1
T/C [1]: 96 % of control
T/C [2]: 102 % of control
T/C [3]: 89 % of control

CC(C)C(=O)C(C)(C)C(=O)N1CCCCC1
T/C [1]: 96 % of control
T/C [2]: 103 % of control
T/C [3]: 94 % of control

O=S(=O)(O)C1=CC(=N\Cl)/C=CC/1=N/Cl
T/C (endpoint: median survival time, dose: 50.0 mg/kg/injection, schedule: Q01DX009 (ip), vehicle: saline with Tween-80): 110 % of control
T/C (endpoint: median survival time, dose: 100.0 mg/kg/injection, schedule: Q01DX009 (ip), vehicle: saline with Tween-80): 119 % of control
T/C (endpoint: median survival time, dose: 200.0 mg/kg/injection, schedule: Q01DX009 (ip), vehicle: saline with Tween-80): 108 % of control
T/C (endpoint: median survival time, dose: 400.0 mg/kg/injection, schedule: Q01DX009 (ip), vehicle: saline with Tween-80): 120 % of control

COc1c(C)c2c(c(O)c1CC(=O)Nc1ccccc1C(=O)O)C(=O)OC2
T/C (endpoint: mean survival time, dose: 100.0 mg/kg/injection, schedule: Q04DX002 (ip), vehicle: saline): 96 % of control
T/C (endpoint: mean survival time, dose: 200.0 mg/kg/injection, schedule: Q04DX002 (ip), vehicle: saline): 100 % of control
T/C (endpoint: mean survival time, dose: 400.0 mg/kg/injection, schedule: Q04DX002 (ip), vehicle: saline): 91 % of control

Cn1c(=O)c2c(nc(-c3ccccc3)n2O)n(C)c1=O
T/C (endpoint: mean survival time, dose: 12.5 mg/kg/injection, schedule: Q01DX005 (ip), vehicle: other): 97 % of control
T/C (endpoint: mean survival time, dose: 25.0 mg/kg/injection, schedule: Q01DX005 (ip), vehicle: other): 105 % of control
T/C (endpoint: mean survival time, dose: 50.0 mg/kg/injection, schedule: Q01DX005 (ip), vehicle: other): 92 % of control
T/C (endpoint: mean survival time, dose: 100.0 mg/kg/injection, schedule: Q01DX005 (ip), vehicle: other): 97 % of control

Cc1nc(Cl)c2cnccn12
T/C (endpoint: mean survival time, dose: 12.5 mg/kg/injection, schedule: Q04DX003 (ip), vehicle: saline): 96 % of control
T/C (endpoint: mean survival time, dose: 25.0 mg/kg/injection, schedule: Q04DX003 (ip), vehicle: saline): 100 % of control
T/C (endpoint: mean survival time, dose: 50.0 mg/kg/injection, schedule: Q04DX003 (ip), vehicle: saline): 104 % of control

C[C@@]1(CO)[C@H](O)CC[C@@]2(C)[C@H]1CC[C@H]1C[C@@H]3C[C@@]12CC[C@@]3(O)COC(=O)CN
T/C (endpoint: median survival time, dose: 0.2 mg/kg/injection, schedule: Q01DX009 (ip), vehicle: saline + alcohol): 100 % of control
T/C (endpoint: median survival time, dose: 0.4 mg/kg/injection, schedule: Q01DX009 (ip), vehicle: saline + alcohol): 106 % of control
T/C (endpoint: median survival time, dose: 0.8 mg/kg/injection, schedule: Q01DX009 (ip), vehicle: saline + alcohol): 107 % of control
T/C (endpoint: median survival time, dose: 1.6 mg/kg/injection, schedule: Q01DX009 (ip), vehicle: saline + alcohol): 102 % of control
T/C (endpoint: median survival time, dose: 5.0 mg/kg/injection, schedule: Q03HX027 (ip), vehicle: saline + alcohol): 101 % of control
T/C (endpoint: median survival time, dose: 6.25 mg/kg/injection, schedule: Q01DX009 (ip), vehicle: saline + alcohol): 105 % of control
T/C (endpoint: median survival time, dose: 10.0 mg/kg/injection, schedule: Q03HX027 (ip), vehicle: saline + alcohol): 109 % of control
T/C (endpoint: median survival time, dose: 12.5 mg/kg/injection, schedule: Q01DX009 (ip), vehicle: saline + alcohol): 106 % of control
T/C (endpoint: median survival time, dose: 20.0 mg/kg/injection, schedule: Q03HX027 (ip), vehicle: saline + alcohol): 116 % of control
T/C (endpoint: median survival time, dose: 25.0 mg/kg/injection, schedule: Q01DX005 (ip), vehicle: saline): 112 % of control
T/C (endpoint: median survival time, dose: 25.0 mg/kg/injection, schedule: Q01DX009 (ip), vehicle: saline + alcohol): 107 % of control
T/C (endpoint: median survival time, dose: 36.0 mg/kg/injection, schedule: Q01DX005 (ip), vehicle: saline): 115 % of control
T/C (endpoint: median survival time, dose: 36.0 mg/kg/injection, schedule: Q01DX009 (ip), vehicle: saline): 110 % of control
T/C (endpoint: median survival time, dose: 50.0 mg/kg/injection, schedule: Q01DX005 (ip), vehicle: saline): 116 % of control
T/C (endpoint: median survival time, dose: 50.0 mg/kg/injection, schedule: Q01DX009 (ip), vehicle: saline + alcohol): 116 % of control
T/C (endpoint: median survival time, dose: 60.0 mg/kg/injection, schedule: Q01DX005 (ip), vehicle: saline): 116 % of control
T/C (endpoint: median survival time, dose: 60.0 mg/kg/injection, schedule: Q01DX009 (ip), vehicle: saline): 110 % of control
T/C (endpoint: median survival time, dose: 100.0 mg/kg/injection, schedule: Q01DX005 (ip), vehicle: saline): 122 % of control
T/C (endpoint: median survival time, dose: 100.0 mg/kg/injection, schedule: Q01DX009 (ip), vehicle: saline): 151 % of control
T/C (endpoint: median survival time, dose: 166.6 mg/kg/injection, schedule: Q01DX009 (ip), vehicle: saline): 153 % of control
T/C (endpoint: median survival time, dose: 12.5 micrograms/kg/injection, schedule: Q01DX009 (ip), vehicle: saline + alcohol): 103 % of control
T/C (endpoint: median survival time, dose: 25.0 micrograms/kg/injection, schedule: Q01DX009 (ip), vehicle: saline + alcohol): 103 % of control
T/C (endpoint: median survival time, dose: 50.0 micrograms/kg/injection, schedule: Q01DX009 (ip), vehicle: saline + alcohol): 103 % of control
T/C (endpoint: median survival time, dose: 100.0 micrograms/kg/injection, schedule: Q01DX009 (ip), vehicle: saline + alcohol): 101 % of control
T/C (endpoint: median survival time, dose: 200.0 micrograms/kg/injection, schedule: Q01DX009 (ip), vehicle: saline + alcohol): 102 % of control
